Entries after “also recorded” stand apart in the source; their conditions may differ.

The results in this text go back to patent publication US5663207A, “Gem-dichlorocyclopropanes as antitumor agents” (priority 1995, dated 1997).

One experiment addresses T1, estrogen receptor (Rattus norvegicus, UniProt P06211).
T1 construct: ovariectomized rat uterine cytosolic estrogen receptor preparation; from tissue; host or cells: uterine cytosol of ovariectomized Sprague-Dawley rats (immature rats from Sasco are named as uterus source, mature ovariectomized rats)
T1 sequence (P06211 1-600): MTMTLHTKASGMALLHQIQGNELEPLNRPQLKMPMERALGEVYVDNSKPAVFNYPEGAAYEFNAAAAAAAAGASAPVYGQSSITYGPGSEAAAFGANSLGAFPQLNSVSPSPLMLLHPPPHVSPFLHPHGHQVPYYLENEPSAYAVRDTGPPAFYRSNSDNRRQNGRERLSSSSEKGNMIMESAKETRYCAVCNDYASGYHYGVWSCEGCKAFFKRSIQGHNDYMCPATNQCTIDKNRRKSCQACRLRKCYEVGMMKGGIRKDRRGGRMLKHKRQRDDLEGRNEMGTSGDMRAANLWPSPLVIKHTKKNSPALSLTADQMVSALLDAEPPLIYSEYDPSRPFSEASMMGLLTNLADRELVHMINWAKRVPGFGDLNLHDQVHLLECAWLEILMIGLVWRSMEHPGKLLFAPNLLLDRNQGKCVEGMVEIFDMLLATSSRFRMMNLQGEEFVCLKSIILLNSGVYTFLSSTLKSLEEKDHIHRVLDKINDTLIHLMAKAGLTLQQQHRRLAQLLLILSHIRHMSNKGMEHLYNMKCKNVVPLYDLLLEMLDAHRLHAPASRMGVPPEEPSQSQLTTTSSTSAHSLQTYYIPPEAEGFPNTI
The experiment is described as follows: Receptor binding assay: displacement of [3H]-estradiol from rat uterine cytosol. Details: species or system rat (Sprague-Dawley). The settings on record: for RBA (relative binding affinity): relative to estradiol = 100%, average of duplicate determinations minus nonspecific binding. An excerpt:
The biological evaluation of the test compounds consisted of the in vitro rat cytosolic estradiol receptor binding assay, the in vivo immature mouse uterotrophic (estrogenic) and antiuterotrophic (antiestrogenic) assays, and the in vitro suppression of the proliferation of the ER positive MCF-7 human breast cancer cell line. Estradiol (pure agonist), TAM (agonist in mice and antagonist in MCF-7), MER 25 (pure antagonist) and Analog II (antagonist in mice) were used in the assay as standards.
(§1) Vital-free immature female Swiss-Webster mice were obtained at 17-19 days of age from Sasco weighing 8-10 g, and were used in the uterotrophic and antiuterotrophic assays. Immature female Sprague-Dawley rats, obtained at 17-19 days of age from Sasco, weighing 28-33 g, were used as sources of uteri for the estradiol receptor binding assay. Animals were housed in wire topped polycarbonate cages at six animals per cage, with the environment controlled at 25° C. and a 12 h light/dark cycle. The animals received a diet of Wayne Lab Blox rodent chow and tap water ad libitum.
The RBAs of the test compounds were determined by the displacement of [^3 H]-estradiol in vitro, as described previously (DAY, B. W., […], R. A., JAIN, P., PENTO, J. T., MOUSISSIAN, G. K. AND MEYER, K. L. (1991), "Synthesis and biological evaluation of a series of 1,1-dichloro-2,2,3-triarylcyclopropanes as pure antiestrogens", Journal of Medicinal Chemistry, 34, 842; KORENMAN, S. G. (1969), "Comparative binding affinity of estrogens and its relation to estrogenic potency", Steroid, 13, 163). Mature female Sprague-Dawley rats were ovariectomized at least two weeks prior to the receptor binding experiment. Each test compound was assayed at three concentrations in duplicate over a range of 10^-3 -10^-5 M and 10^-6 -10^-8 M for the estradiol standard. The non-specific binding was determined by a parallel incubation of each compound with the addition of diethylstilbestrol to give a final concentration of 2×10^-5 M DES which was sufficient to saturate all the estrogen receptors present in the cytosolic fraction. Specific displacement for each compound was determined by subtraction of nonspecific displacement from total displacement. The [^3 H]-estradioldisplacement curve for each test compound was determined by linear repression analysis and plotted graphically. The relative binding affinity for each compound was calculated (BLISS, C.I. (1967), "The statistics in biology", McGraw Hill, Inc: New York).
^a Determined by competitive radiometric binding assay with rat
uterine cytosol as a source of receptor, [^3 H]estradiol as tracer,
and dextrancoated charcoal as absorbant for free ligand.
^c Binding affinities are expressed relative to that of estradiol =
100% (RBA = relative binding affinity) and are the average of duplicate
determinations minus nonspecific binding.
The relative binding affinities (RBAs), as determined by the competitive radiometric binding assay and measured by [^3 H]-estradiol displacement from the ovariectomized rat uterine cytosolic estrogen receptor preparation, after subtracting non-specific receptor binding, were calculated for all of the synthesized target compounds, TAM, MER 25, Analog II, and estradiol. The displacement curves were plotted as percent receptor-bound [^3 H]-estrodiol versus concentration of test compounds (not shown) and the receptor binding affinity of each compound is presented in Table II.
(In a radioligand displacement assay an active substance lowers the binding of a labelled ligand.)

Experiment [1] has as its system Immature Swiss-Webster female mice (uterine weight). Description: Uterotrophic assay for estrogenic activity in immature mice. The experiment is classed as in vivo, mouse (Swiss-Webster).
From the text: (§2) The biological evaluation of the test compounds consisted of the in vitro rat cytosolic estradiol receptor binding assay, the in vivo immature mouse uterotrophic (estrogenic) and antiuterotrophic (antiestrogenic) assays, and the in vitro suppression of the proliferation of the ER positive MCF-7 human breast cancer cell line.
as §1
Immature Swiss-Webster female mice (8-15 g) at 17-19 days of age were used. Estradiol was used in the dosage range of […] (total dose) as the assay standard. Each cyclopropyl analogue was examined at doses of 5, 25, and 100 μg (total dose). […] Estrogenic activity was measured as an increase in uterine weight produced by each test compound.

Experiment [2] relates to Immature Swiss-Webster female mice (estradiol-stimulated uterine weight). Description: Antiuterotrophic assay for antiestrogenic activity in immature mice. To be noted: 0.4, 0.8, and 1.6 mg; three-day assay; estradiol 0.03 μg. The experiment is classed as in vivo, mouse (Swiss-Webster).
From the text: as §2
Vital-free immature female Swiss-Webster mice were obtained at 17-19 days of age from Sasco weighing 8-10 g, and were used in the uterotrophic and antiuterotrophic assays. Immature female Sprague-Dawley rats, obtained at 17-19 days of age from Sasco, weighing 28-33 g, were used as sources of uteri for the estradiol receptor binding assay. Animals were housed in wire topped polycarbonate cages at six animals per cage, with the environment controlled at 25° C. and a 12 h light/dark cycle. […]
The antiestrogenic assay was conducted as described for the estrogenic assay, except that each mouse in the cyclopropyl treatment groups received a standard stimulating dose of estradiol (0.03 μg) in sesame oil (0.1 mL) and the test compounds or MER 25 were administered in isopropyl myristate (0.05 mL) in a dosage range of 0.4, 0.8 and 1.6 mg (total dose). […] Antiestrogenic activity was measured as a decrease in the estradiol-stimulated […] response in groups that received both the test compound and estradiol as compared to the group treated only with estradiol.

Take `CC(=O)Oc1ccc([C@H]2[C@@H](c3ccccc3)C2(Cl)Cl)cc1` (relative stereo) [Compound 10, 1,1-Dichloro-cis-2-(p-acetoxyphenyl)-3-phenylcyclopropane]: the “RBA (relative binding affinity)” value on estrogen receptor turned out to be 0.07%.

Turning to `Oc1ccc(C2(c3ccc(O)cc3)C(Cl)(Cl)C23CCCCC3)cc1` [Compound 30, 1,1-Dichloro-2,2-bis-(p-hydroxyphenyl)-spiro[2.5]octane], the “RBA ranking (in words)” value on estrogen receptor (among the compounds tested) is on record as “comparable to tamoxifen; also recorded: the highest”. For the same compound, the “RBA (relative binding affinity)” value on estrogen receptor is 0.62%. In experiment [1] (doses of 5, 25 and 100 μg (total dose)), the “uterine weight response (estrogenic activity, in words)” value is recorded as “dose-dependent increase in uterine weight”. In experiment [1] (of that of estradiol, doses of 5, 25, and 100 μg), the “relative potency (uterotrophic) versus estradiol” value is 0.05%. The “antiestrogenic activity: effect on estradiol-induced uterine weight gain (in words)” value in experiment [2] is “augmented uterotrophic effects beyond the stimulating dose of estradiol”.
